Test results published in patent publication US9676714B2, “Sulfonylindole derivatives and method for preparing the same” (Daewoong Pharmaceutical Co., Ltd., priority 2013, dated 2017).
Structures can show the parent of a compound that is named as a salt.

Legend:
[1] = test system: basal gastric acid secretion; assay: Inhibitory effect on the basal gastric acid secretion in pylorus-ligated rats (Shay's rat model); assay type: in vivo, Sprague Dawley (SD) rats; details: 5 h, male SD rats, 3 mg/kg/2 ml into the duodenum, five hours after the ligation, total gastric acid secretion vs control group
Procedure: 3) Inhibitory Effect on the Basal Gastric Acid Secretion in Pylorus-Ligated Rats
Assays for determining inhibitory effect of the compounds of the present invention on the basal gastric acid secretion was performed according to Shay's rat model (Shay, H., et al., 1945, gastroenterology, 5, p. 43-61). Male Sprague Dawley (SD) rats with a body weight in the range of 180˜220 g were divided into test (n=5) and control groups (n=5), and fasted for 18 hours with free access to water. Under isoflurane anesthesia, the abdomens of the rats were incised and then the pylorus was ligated. After the ligation, the control groups were administered with only 10% ethanol, 20% polyethylene glycol (PEG) 400, and 10% aqueous Cremophor solution through the duodenum, and the other groups were administered with test compounds suspended in 10% ethanol, 20% PEG 400, and 10% aqueous Cremophor solution at a concentration of 3 mg/kg/2 ml into the duodenum. Five hours after the ligation, the experimental animals were euthanized and their stomach contents were collected. The thus obtained contents were centrifuged at 4,000×g for 10 minutes, and the supernatant was recovered to obtain gastric juice therefrom. The amount of the gastric juice and its pH were measured. The acidity of the gastric juice was determined by 0.1 N-NaOH volume (ueq/mL) for automatic titration of gastric acid to pH 7.0. The total acid output was obtained by multiplying the gastric acidity by the amount of gastric juice. Inhibition Activity (%) of Test Compounds=(total gastric acid secretion in control group−total gastric acid secretion in groups treated with test compounds)/total gastric acid secretion in control group×100

[2] = target: T1, proton pump (H+/K+-ATPase) (Sus scrofa, UniProt P19156); assay: Measurement of inhibitory effects on proton pump (H+/K+-ATPase) activities; assay type: biochemical; details: hog gastric vesicles, K+-specific H+/K+-ATPase activity, Tris-HCl buffer pH 7.4, 37° C. for 40 minutes, malachite green Pi readout
T1 construct: Gastric vesicles were prepared from hog stomach via centrifugal separation; from tissue; host or cells: hog stomach (gastric vesicles, method of Rabon et al. 1988)
T1 sequence (P19156 whole entry): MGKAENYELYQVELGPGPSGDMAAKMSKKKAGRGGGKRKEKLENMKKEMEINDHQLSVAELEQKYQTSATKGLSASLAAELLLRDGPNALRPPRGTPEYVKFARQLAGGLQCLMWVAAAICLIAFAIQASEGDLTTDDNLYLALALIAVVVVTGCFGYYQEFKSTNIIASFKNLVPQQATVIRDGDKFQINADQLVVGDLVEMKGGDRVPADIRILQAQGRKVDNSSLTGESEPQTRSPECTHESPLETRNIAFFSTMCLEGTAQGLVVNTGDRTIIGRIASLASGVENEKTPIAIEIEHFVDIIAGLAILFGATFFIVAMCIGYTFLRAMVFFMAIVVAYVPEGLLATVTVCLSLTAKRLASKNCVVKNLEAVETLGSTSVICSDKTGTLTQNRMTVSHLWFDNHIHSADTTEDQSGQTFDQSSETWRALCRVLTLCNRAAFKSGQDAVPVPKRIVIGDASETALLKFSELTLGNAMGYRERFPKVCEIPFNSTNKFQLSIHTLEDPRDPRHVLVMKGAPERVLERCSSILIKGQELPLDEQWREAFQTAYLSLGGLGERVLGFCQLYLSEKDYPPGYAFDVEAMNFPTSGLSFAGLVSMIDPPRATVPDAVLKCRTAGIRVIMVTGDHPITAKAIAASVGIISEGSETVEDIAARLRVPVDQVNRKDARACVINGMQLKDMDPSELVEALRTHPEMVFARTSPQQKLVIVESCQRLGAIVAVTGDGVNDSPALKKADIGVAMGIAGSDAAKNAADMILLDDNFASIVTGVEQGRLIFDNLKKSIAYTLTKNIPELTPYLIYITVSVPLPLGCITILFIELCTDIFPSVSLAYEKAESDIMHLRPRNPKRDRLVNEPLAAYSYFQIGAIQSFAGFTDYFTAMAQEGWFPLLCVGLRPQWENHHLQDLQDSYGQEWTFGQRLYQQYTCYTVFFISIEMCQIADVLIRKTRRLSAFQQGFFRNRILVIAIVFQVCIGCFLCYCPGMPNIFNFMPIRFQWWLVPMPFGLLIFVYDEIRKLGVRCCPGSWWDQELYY
T1 sequence (P18434 whole entry partner): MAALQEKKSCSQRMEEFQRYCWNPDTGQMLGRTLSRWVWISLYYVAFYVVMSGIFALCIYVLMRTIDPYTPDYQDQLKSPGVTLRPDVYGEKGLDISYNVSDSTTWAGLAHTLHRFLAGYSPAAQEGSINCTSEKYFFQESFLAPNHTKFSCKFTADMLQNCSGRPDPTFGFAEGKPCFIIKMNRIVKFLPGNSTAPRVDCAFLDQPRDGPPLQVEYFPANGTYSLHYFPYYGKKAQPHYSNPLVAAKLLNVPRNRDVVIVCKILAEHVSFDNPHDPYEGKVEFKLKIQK
Method in brief: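 Hog gastric vesicles in 60 mmol/l Tris-HCl pH 7.4 with 0.5% DMSO were treated with compounds at room temperature; reaction was started with 10 μl of 10 mmol/l ATP stock. Released Pi was read at 570 nm, K+-specific activity taken as the ±K+ difference. IC50 from 4-parameter logistic fit.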

| SMILES | inhibition in vivo at 3 mg/kg [1] | IC50 [2] |
| --- | --- | --- |
| CNCc1cn(S(=O)(=O)c2cccnc2)c2cc(Nc3ccc(Cl)cc3Cl)ccc12 [Example 29, N-(2,4-dichlorophenyl)-3-((methylamino)methyl)-1-(pyridin-3-ylsulfonyl)-1H-indol-6-amine hydrochloride] | 44% | 130 nM |
| CNCc1cn(S(=O)(=O)c2cccnc2)c2cc(Nc3ccc(Cl)cc3C(F)(F)F)ccc12 [Example 31, N-(4-chloro-2-(trifluoromethyl)phenyl)-3-((methylamino)methyl)-1-(pyridin-3-ylsulfonyl)-1H-indol-6-amine hydrochloride] | 41% | 920 nM |
| CNCc1cn(S(=O)(=O)c2cccnc2)c2cc(Nc3ccc(C(F)(F)F)cc3Cl)ccc12 [Example 34, N-(2-chloro-4-(trifluoromethyl)phenyl)-3-((methylamino)methyl)-1-(pyridin-3-ylsulfonyl)-1H-indol-6-amine hydrochloride] | 45% | 390 nM |
| CNCc1cn(S(=O)(=O)c2cccnc2)c2cc(Nc3ccc(OC)cc3OC(F)(F)F)ccc12 [Example 50, N-(4-methoxy-2-(trifluoromethoxy)phenyl)-3-((methylamino)methyl)-1-(pyridin-3-ylsulfonyl)-1H-indol-6-amine hydrochloride] | 67% | 1370 nM |
| CNCc1cn(S(=O)(=O)c2cccnc2)c2cc(Nc3ccc(OC)cc3[N+](=O)[O-])ccc12 [Example 52, N-(4-methoxy-2-nitrophenyl)-3-((methylamino)methyl)-1-(pyridin-3-ylsulfonyl)-1H-indol-6-amine hydrochloride] | 70% | 290 nM |
| CNCc1cn(S(=O)(=O)c2cccnc2)c2cc(Nc3ccc(OC(F)(F)F)cc3C)ccc12 [Example 53, N-(2-methyl-4-(trifluoromethoxy)phenyl)-3-((methylamino)methyl)-1-(pyridin-3-ylsulfonyl)-1H-indol-6-amine hydrochloride] | 45% | 490 nM |
| CNCc1cn(S(=O)(=O)c2cccnc2)c2cc(Nc3ccc(OC(F)(F)F)cc3Cl)ccc12 [Example 55, N-(2-chloro-4-(trifluoromethoxy)phenyl)-3-((methylamino)methyl)-1-(pyridin-3-ylsulfonyl)-1H-indol-6-amine hydrochloride] | 55% | 420 nM |
| CNCc1cn(S(=O)(=O)c2cccnc2)c2cc(Nc3ccc(OC(F)(F)F)cc3OC)ccc12 [Example 56, N-(2-methoxy-4-(trifluoromethoxy)phenyl)-3-((methylamino)methyl)-1-(pyridin-3-ylsulfonyl)-1H-indol-6-amine hydrochloride] | 82% | 460 nM |
| CNCc1cn(S(=O)(=O)c2cccnc2)c2cc(Nc3ccc(C)c(F)c3F)ccc12 [Example 65, N-(2,3-difluoro-4-methylphenyl)-3-((methylamino)methyl)-1-(pyridin-3-ylsulfonyl)-1H-indol-6-amine hydrochloride] | 42% | 310 nM |
| CNCc1cn(S(=O)(=O)c2cccnc2)c2cc(Nc3cc(F)c(C)cc3F)ccc12 [Example 72, N-(2,5-difluoro-4-methylphenyl)-3-((methylamino)methyl)-1-(pyridin-3-ylsulfonyl)-1H-indol-6-amine hydrochloride] | 49% | 610 nM |
| CNCc1cn(S(=O)(=O)c2cccnc2)c2cc(Nc3cccnc3OC)ccc12 [Example 108, N-(2-methoxypyridin-3-yl)-3-((methylamino)methyl)-1-(pyridin-3-ylsulfonyl)-1H-indol-6-amine hydrochloride] | 49% | 1590 nM |
| CNCc1cn(S(=O)(=O)c2cccnc2)c2cc(Nc3ccc(Cl)nc3OC)ccc12 [Example 120, N-(6-chloro-2-methoxypyridin-3-yl)-3-((methylamino)methyl)-1-(pyridin-3-ylsulfonyl)-1H-indol-6-amine hydrochloride] | 46% | 420 nM |
